Experimental findings from publication PMC4854315, “Discovery of a novel allosteric inhibitor-binding site in ERK5: comparison with the canonical kinase hinge ATP-binding site” (Acta Crystallographica. Section D, Structural Biology, 2016) are described below.

Assay in all cases: Z'-LYTE kinase panel
Type in all cases: biochemical

One experiment has as its target T1, AKT3 (PKB gamma) (Homo sapiens, UniProt Q9Y243).
T1 construct: purchased ThermoFisher (SelectScreen, Z'-LYTE)
The method in brief: (§1)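 The 225-kinase standard panel was run using the Z′-LYTE protocol, and inhibition was expressed as a percentage relative to uninhibited activity at 10 µM compound.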

The next experiment concerns the target T2, BLK (Homo sapiens, UniProt P51451).
T2 construct: purchased ThermoFisher (SelectScreen, Z'-LYTE)
Put shortly:
as §1

The target in another experiment is T3, CAMK2A (CaMKII alpha) (Homo sapiens, UniProt Q9UQM7).
T3 construct: purchased ThermoFisher (SelectScreen, Z'-LYTE)
The method in brief:
as §1

The target of a further experiment is T4, EPHB3 (Homo sapiens, UniProt P54753).
T4 construct: purchased ThermoFisher (SelectScreen, Z'-LYTE)
T4 sequence (P54753 34-998): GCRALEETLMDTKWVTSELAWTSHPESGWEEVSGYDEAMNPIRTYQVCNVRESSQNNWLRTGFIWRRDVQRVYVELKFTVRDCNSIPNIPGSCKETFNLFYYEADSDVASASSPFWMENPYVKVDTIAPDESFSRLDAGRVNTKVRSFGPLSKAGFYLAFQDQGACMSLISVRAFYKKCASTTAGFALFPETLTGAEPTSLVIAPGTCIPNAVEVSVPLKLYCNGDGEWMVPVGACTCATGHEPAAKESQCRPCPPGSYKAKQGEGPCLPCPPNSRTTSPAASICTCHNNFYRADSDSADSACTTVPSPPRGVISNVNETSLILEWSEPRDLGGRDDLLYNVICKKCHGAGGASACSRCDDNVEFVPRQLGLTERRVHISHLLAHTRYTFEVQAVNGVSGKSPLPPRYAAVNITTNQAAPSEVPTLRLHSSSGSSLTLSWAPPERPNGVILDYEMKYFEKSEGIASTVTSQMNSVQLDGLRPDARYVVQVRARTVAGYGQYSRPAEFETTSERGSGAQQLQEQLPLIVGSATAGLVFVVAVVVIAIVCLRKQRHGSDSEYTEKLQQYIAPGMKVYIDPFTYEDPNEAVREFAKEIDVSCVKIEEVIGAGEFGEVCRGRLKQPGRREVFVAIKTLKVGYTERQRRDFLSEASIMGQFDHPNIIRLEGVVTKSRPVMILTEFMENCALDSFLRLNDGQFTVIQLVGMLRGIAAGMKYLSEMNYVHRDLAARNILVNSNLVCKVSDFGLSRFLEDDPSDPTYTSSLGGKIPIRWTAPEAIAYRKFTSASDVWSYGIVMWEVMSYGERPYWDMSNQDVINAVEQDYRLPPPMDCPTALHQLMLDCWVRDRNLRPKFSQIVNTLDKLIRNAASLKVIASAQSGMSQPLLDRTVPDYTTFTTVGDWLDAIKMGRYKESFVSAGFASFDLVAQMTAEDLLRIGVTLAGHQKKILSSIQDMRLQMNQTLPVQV
Put shortly: as §1

Another experiment concerns the target T5, ERBB2 (HER2) (Homo sapiens, UniProt P04626).
T5 construct: purchased ThermoFisher (SelectScreen, Z'-LYTE)
Put shortly:
as §1

The next experiment addresses T6, FGFR1 (Homo sapiens, UniProt P11362).
T6 construct: purchased ThermoFisher (SelectScreen, Z'-LYTE)
Put shortly: as §1

For a further experiment, the target named is T7, GRK7 (Homo sapiens, UniProt Q8WTQ7).
T7 construct: purchased ThermoFisher (SelectScreen, Z'-LYTE)
T7 sequence (Q8WTQ7 1-553): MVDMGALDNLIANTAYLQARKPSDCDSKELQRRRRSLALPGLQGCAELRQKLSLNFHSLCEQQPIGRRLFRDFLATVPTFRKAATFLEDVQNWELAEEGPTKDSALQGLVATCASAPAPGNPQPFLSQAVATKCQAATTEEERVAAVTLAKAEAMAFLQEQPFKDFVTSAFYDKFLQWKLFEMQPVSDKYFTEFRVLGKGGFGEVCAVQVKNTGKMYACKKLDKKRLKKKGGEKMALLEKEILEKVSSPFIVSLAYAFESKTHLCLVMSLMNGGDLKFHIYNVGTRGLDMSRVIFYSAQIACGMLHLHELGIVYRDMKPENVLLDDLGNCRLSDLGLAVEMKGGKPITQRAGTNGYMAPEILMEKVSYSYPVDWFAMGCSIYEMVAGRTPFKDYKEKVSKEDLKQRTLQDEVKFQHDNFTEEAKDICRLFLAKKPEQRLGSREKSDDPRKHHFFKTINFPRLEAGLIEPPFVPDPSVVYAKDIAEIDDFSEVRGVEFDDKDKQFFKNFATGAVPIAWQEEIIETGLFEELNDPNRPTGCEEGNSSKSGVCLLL
The method in brief:
as §1

In another experiment the target is T8, MATK (HYL) (Homo sapiens, UniProt P42679).
T8 construct: purchased ThermoFisher (SelectScreen, Z'-LYTE)
T8 sequence (P42679 1-507): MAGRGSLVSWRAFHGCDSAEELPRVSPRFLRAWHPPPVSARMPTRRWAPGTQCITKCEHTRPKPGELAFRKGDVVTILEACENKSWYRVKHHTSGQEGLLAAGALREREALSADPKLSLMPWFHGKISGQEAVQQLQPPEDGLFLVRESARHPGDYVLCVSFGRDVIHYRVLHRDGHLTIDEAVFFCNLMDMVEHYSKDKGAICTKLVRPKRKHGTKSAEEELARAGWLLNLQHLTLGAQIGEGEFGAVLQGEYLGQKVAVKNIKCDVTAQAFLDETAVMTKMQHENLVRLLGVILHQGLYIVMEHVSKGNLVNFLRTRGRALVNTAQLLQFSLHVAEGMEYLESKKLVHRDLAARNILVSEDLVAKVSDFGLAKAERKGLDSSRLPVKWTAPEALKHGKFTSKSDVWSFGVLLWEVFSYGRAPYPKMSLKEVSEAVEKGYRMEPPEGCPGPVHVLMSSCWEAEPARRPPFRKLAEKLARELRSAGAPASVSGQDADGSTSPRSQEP
The method in brief: as §1

A further experiment deals with T9, TXK (Homo sapiens, UniProt P42681).
T9 construct: purchased ThermoFisher (SelectScreen, Z'-LYTE)
T9 sequence (P42681 1-527): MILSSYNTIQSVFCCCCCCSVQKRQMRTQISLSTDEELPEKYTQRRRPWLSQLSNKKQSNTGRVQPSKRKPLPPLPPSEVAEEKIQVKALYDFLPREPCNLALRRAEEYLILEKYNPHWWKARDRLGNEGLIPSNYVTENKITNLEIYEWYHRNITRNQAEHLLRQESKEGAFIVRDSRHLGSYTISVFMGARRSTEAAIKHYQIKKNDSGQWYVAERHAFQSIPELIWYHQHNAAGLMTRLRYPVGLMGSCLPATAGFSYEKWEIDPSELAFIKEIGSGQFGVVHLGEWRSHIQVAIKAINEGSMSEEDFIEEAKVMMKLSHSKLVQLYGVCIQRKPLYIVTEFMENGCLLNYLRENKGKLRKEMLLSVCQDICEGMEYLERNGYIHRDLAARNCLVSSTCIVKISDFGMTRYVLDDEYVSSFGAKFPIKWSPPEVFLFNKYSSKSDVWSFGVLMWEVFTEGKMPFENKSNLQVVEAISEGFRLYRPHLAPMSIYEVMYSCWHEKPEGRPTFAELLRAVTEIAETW
The method in brief: as §1

T6 sequence (P11362 22-822): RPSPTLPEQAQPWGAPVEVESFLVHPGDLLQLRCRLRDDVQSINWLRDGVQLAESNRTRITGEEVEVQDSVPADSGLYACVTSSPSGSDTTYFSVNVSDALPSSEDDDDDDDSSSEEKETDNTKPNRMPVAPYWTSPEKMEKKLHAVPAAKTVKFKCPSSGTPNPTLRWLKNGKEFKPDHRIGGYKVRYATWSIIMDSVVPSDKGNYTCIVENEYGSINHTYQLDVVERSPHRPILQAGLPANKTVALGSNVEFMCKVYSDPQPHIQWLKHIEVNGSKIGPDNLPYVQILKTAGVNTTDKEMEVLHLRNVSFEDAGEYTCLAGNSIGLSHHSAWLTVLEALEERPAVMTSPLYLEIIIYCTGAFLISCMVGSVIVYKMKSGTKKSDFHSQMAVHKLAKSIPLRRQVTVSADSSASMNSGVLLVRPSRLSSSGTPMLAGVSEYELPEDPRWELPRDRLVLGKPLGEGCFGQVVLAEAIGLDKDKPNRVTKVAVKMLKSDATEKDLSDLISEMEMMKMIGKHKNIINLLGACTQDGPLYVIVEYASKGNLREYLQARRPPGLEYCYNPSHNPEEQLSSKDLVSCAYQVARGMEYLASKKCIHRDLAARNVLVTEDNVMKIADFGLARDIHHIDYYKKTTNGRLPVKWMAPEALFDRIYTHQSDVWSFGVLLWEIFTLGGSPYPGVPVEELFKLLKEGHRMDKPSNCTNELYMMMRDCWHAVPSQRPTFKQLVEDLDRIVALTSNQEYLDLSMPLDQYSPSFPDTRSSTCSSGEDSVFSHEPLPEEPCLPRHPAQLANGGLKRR
T1 sequence (Q9Y243 whole entry): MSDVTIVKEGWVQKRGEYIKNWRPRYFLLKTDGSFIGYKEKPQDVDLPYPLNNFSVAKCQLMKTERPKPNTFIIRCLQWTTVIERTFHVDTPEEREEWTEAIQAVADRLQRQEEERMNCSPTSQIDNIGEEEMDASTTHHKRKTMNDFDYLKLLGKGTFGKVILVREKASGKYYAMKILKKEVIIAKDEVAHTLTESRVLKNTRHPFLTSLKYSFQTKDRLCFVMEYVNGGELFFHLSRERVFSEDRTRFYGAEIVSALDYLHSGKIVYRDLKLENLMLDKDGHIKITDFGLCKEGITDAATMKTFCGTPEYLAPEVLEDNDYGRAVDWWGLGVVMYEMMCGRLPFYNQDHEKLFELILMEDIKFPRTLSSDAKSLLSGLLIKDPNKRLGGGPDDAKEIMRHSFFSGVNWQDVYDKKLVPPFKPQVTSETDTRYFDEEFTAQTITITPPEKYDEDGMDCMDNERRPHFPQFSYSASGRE
T2 sequence (P51451 whole entry): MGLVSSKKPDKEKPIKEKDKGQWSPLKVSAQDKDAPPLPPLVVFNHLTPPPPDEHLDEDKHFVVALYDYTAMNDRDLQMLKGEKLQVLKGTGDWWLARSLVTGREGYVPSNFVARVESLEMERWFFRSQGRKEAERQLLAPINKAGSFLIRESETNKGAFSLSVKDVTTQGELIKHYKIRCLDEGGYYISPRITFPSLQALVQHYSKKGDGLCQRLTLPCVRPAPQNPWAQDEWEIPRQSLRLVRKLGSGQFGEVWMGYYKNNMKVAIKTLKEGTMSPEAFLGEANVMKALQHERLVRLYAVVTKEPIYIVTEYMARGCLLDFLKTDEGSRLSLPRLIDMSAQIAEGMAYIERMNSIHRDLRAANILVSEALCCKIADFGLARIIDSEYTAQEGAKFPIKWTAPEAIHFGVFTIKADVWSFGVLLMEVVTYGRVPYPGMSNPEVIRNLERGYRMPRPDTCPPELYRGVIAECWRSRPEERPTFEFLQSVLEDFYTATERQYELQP

The inhibition is the drop in the measured response relative to a control, in per cent. As to `Cc1ncc(-c2nc(Nc3ccc(C(=O)NCCN4CCCCC4)cc3)ncc2F)n1C(C)C` [Compound 3], the inhibition at 10 µM is 43% against AKT3 (PKB gamma); 65% against BLK; 89% against CAMK2A (CaMKII alpha); 51% against EPHB3; -1.66% against ERBB2 (HER2); 73% against FGFR1. For the same compound, the inhibition at 10 µM was 40% on GRK7, 0.522% against MATK (HYL) and 40% against TXK.
For the compound `Cc1cc(Nc2nc(N)nn2C(=O)NC(C)C)ccc1Cl` [Compound 5], the inhibition at 10 µM is 2% against AKT3 (PKB gamma); 22% against BLK; -10% against CAMK2A (CaMKII alpha); 0.2% against EPHB3; -29% on ERBB2 (HER2); 17% against FGFR1. The inhibition at 10 µM against GRK7 was 10%; at MATK (HYL), -1.63%; against TXK it was -9%.
For the compound “XMD8-92 [Compound 2, reference compound]”, the “AKT3 (PKB gamma) % Inhibition” value on AKT3 (PKB gamma) (10 µM compound, ATP Km app) was found to be 72%. In addition, on BLK (10 µM compound, ATP Km app), the “BLK % Inhibition” value was 38%. On CAMK2A (CaMKII alpha) (10 µM compound, ATP Km app), the “CAMK2A (CaMKII alpha) % Inhibition” value stood at 59%. Also, the “EPHB3 % Inhibition” value on EPHB3 (10 µM compound, ATP Km app) was determined as 22%. The “ERBB2 (HER2) % Inhibition” value at ERBB2 (HER2) (10 µM compound, ATP Km app) is on record as -17%. The “FGFR1 % Inhibition” value on FGFR1 (10 µM compound, ATP Km app) worked out at 8%. The “GRK7 % Inhibition” value at GRK7 (10 µM compound, ATP Km app) stood at 39%. For the same compound, on MATK (HYL) (10 µM compound, ATP Km app), the “MATK (HYL) % Inhibition” value amounted to 2.46%. Further, the “TXK % Inhibition” value on TXK (10 µM compound, ATP Km app) was 73%.
